Publication PMC6407913, “DREADD Agonist 21 Is an Effective Agonist for Muscarinic-Based DREADDs in Vitro and in Vivo” (ACS Pharmacology & Translational Science, 2018)
Several values for one entry are separate records, joined by “and”; a condition that tells them apart may be missing. Identical values can stand only once.

Key:
Format in all cases: cell-based
[1] = molecular target: T1, 318 nonolfactory human GPCRs (Homo sapiens, UniProt Q8TDV0); settings: GPR151; C21 5 µM
T1 construct: expressed in transfected cells; host or cells: HTLA cells, transient

[2] = molecular target: T2, 318 nonolfactory human GPCRs (Homo sapiens, UniProt Q86SQ6); settings: GPR123; C21 5 µM
T2 construct: expressed in transfected cells; host or cells: HTLA cells, transient

[3] = molecular target: T3, 318 nonolfactory human GPCRs (Homo sapiens, UniProt P25106); settings: CXCR7; C21 5 µM
T3 construct: expressed in transfected cells; host or cells: HTLA cells, transient
T3 sequence (P25106 whole entry): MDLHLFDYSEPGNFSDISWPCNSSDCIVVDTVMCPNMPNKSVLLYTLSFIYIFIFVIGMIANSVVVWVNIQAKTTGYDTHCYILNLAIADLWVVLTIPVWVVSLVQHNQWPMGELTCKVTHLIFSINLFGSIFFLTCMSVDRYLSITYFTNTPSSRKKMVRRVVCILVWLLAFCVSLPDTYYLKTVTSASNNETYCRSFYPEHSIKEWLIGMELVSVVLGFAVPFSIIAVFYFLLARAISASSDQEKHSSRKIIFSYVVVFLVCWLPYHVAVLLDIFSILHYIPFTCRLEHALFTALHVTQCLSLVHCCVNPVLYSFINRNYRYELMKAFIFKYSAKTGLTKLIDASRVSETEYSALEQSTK

[4] = molecular target: T4, 318 nonolfactory human GPCRs (Homo sapiens, UniProt P32245); settings: MC4R; C21 5 µM
T4 construct: expressed in transfected cells; host or cells: HTLA cells, transient

[5] = molecular target: T5, 318 nonolfactory human GPCRs (Homo sapiens, UniProt P28222); settings: HTR1B; C21 5 µM
T5 construct: expressed in transfected cells; host or cells: HTLA cells, transient

[6] = molecular target: T6, 318 nonolfactory human GPCRs (Homo sapiens, UniProt P35367); settings: HRH1; C21 5 µM
T6 construct: expressed in transfected cells; host or cells: HTLA cells, transient
T6 sequence (P35367 whole entry): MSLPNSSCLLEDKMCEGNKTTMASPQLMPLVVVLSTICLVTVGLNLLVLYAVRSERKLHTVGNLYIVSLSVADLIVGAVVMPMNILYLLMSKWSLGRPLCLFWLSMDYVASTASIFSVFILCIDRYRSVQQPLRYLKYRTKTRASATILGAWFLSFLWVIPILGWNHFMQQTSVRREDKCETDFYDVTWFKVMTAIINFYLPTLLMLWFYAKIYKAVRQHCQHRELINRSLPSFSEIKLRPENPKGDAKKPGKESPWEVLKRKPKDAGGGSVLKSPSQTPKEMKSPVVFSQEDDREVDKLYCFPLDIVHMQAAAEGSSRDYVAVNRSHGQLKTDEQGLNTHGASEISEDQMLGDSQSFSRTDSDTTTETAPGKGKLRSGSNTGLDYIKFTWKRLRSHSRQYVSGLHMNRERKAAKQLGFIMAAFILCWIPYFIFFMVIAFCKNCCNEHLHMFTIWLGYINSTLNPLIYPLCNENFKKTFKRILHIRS

[7] = molecular target: T7, 318 nonolfactory human GPCRs (Homo sapiens, UniProt Q92633); settings: LPAR1; C21 5 µM
T7 construct: expressed in transfected cells; host or cells: HTLA cells, transient

[8] = molecular target: T8, 318 nonolfactory human GPCRs (Homo sapiens, UniProt Q14330); settings: GPR18; C21 5 µM
T8 construct: expressed in transfected cells; host or cells: HTLA cells, transient

[9] = molecular target: T9, 318 nonolfactory human GPCRs (Homo sapiens, UniProt Q8NGU9); settings: GPR150; C21 5 µM
T9 construct: expressed in transfected cells; host or cells: HTLA cells, transient
T9 sequence (Q8NGU9 whole entry): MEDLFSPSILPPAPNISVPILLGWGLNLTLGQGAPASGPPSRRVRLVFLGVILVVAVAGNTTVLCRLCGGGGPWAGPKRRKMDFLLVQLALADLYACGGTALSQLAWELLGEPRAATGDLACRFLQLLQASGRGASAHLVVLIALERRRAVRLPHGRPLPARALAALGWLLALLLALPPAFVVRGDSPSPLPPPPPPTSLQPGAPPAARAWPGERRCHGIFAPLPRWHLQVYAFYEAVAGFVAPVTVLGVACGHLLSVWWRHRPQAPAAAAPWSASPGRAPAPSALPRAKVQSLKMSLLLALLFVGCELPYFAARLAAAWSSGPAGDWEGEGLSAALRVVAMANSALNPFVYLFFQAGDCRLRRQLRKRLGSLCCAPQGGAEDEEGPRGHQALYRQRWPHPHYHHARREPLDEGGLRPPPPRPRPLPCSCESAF

[10] = molecular target: T10, 318 nonolfactory human GPCRs (Homo sapiens, UniProt Q9Y5Y3); settings: GPR45; C21 5 µM
T10 construct: expressed in transfected cells; host or cells: HTLA cells, transient
T10 sequence (Q9Y5Y3 whole entry): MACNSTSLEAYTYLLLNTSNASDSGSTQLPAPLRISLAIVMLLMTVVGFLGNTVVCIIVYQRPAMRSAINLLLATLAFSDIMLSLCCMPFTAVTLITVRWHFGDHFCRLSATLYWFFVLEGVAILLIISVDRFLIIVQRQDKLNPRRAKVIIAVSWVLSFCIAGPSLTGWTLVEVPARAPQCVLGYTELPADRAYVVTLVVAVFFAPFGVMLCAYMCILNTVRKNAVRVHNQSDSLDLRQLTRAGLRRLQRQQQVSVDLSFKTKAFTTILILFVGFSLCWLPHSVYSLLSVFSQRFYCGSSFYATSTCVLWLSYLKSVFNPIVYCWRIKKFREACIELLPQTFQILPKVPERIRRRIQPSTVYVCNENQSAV

[11] = molecular target: 318 nonolfactory human GPCRs (Homo sapiens, UniProt Q9UPC5); settings: GPR34; C21 5 µM
[12] = molecular target: T11, 318 nonolfactory human GPCRs (Homo sapiens, UniProt Q13585); settings: GPR50; C21 5 µM
T11 construct: expressed in transfected cells; host or cells: HTLA cells, transient
T11 sequence (Q13585 whole entry): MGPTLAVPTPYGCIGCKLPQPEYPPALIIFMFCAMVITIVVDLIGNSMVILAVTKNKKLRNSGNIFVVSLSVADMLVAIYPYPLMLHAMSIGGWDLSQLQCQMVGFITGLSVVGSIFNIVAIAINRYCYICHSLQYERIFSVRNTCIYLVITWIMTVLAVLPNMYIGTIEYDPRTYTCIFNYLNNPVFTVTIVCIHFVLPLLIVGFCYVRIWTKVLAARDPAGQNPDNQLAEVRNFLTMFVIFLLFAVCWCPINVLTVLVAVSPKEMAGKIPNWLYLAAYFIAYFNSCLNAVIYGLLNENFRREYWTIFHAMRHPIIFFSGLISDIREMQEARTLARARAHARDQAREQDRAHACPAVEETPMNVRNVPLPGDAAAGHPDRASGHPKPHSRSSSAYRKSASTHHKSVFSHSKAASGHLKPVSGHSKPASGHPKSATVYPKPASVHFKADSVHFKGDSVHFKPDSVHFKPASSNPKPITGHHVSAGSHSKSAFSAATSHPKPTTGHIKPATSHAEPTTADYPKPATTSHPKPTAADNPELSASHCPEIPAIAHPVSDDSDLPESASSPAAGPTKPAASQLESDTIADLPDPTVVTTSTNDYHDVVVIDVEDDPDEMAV

[13] = molecular target: T12, 318 nonolfactory human GPCRs (Homo sapiens, UniProt P32247); settings: BB3; C21 5 µM
T12 construct: expressed in transfected cells; host or cells: HTLA cells, transient
T12 sequence (P32247 whole entry): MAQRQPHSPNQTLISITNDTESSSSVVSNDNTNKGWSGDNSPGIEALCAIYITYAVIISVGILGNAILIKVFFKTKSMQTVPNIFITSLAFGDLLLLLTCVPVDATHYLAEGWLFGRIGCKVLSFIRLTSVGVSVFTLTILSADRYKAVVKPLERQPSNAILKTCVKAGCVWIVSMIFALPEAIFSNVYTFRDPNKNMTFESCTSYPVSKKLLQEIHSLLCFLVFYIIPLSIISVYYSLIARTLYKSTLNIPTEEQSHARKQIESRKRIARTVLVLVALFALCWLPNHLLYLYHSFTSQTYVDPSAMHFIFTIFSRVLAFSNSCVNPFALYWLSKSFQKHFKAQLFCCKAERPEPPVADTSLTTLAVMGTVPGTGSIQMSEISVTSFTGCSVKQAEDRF

[14] = molecular target: T13, 318 nonolfactory human GPCRs (Homo sapiens, UniProt P34998); settings: CRHR1; C21 5 µM
T13 construct: expressed in transfected cells; host or cells: HTLA cells, transient

[15] = molecular target: 318 nonolfactory human GPCRs (Homo sapiens, UniProt O95977); settings: S1PR4; C21 5 µM
Sequence of 318 nonolfactory human GPCRs (Homo sapiens, UniProt O95977) (O95977 whole entry): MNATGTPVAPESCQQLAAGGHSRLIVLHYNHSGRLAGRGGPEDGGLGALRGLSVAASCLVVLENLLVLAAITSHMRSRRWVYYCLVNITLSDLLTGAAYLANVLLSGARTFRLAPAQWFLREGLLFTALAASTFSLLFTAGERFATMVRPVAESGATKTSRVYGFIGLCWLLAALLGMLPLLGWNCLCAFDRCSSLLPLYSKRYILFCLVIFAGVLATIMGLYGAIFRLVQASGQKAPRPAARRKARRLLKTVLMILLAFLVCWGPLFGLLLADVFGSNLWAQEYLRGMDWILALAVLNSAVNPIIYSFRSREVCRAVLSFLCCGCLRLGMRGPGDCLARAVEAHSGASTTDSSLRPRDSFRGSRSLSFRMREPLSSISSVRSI

[16] = molecular target: T14, 318 nonolfactory human GPCRs (Homo sapiens, UniProt Q9HBX9); settings: RXFP1; C21 5 µM
T14 construct: expressed in transfected cells; host or cells: HTLA cells, transient

[17] = molecular target: T15, 318 nonolfactory human GPCRs (Homo sapiens, UniProt Q9HBW9); settings: ELTD1; C21 5 µM
T15 construct: expressed in transfected cells; host or cells: HTLA cells, transient

[18] = molecular target: 318 nonolfactory human GPCRs (Homo sapiens, UniProt P41595); settings: HTR2B; C21 5 µM
[19] = molecular target: 318 nonolfactory human GPCRs (Homo sapiens, UniProt Q96PE1); settings: GPR124; C21 5 µM
[20] = molecular target: T16, 318 nonolfactory human GPCRs (Homo sapiens, UniProt P30559); settings: OXTR; C21 5 µM
T16 construct: expressed in transfected cells; host or cells: HTLA cells, transient

[21] = molecular target: T17, 318 nonolfactory human GPCRs (Homo sapiens, UniProt Q9BY21); settings: GPR87; C21 5 µM
T17 construct: expressed in transfected cells; host or cells: HTLA cells, transient

[22] = molecular target: T18, 318 nonolfactory human GPCRs (Homo sapiens, UniProt P34969); settings: HTR7; C21 5 µM
T18 construct: expressed in transfected cells; host or cells: HTLA cells, transient

[23] = molecular target: T19, 318 nonolfactory human GPCRs (Homo sapiens, UniProt Q8WXD0); settings: RXFP2; C21 5 µM
T19 construct: expressed in transfected cells; host or cells: HTLA cells, transient

[24] = molecular target: T20, 318 nonolfactory human GPCRs (Homo sapiens, UniProt P25024); settings: CXCR1; C21 5 µM
T20 construct: expressed in transfected cells; host or cells: HTLA cells, transient
T20 sequence (P25024 whole entry): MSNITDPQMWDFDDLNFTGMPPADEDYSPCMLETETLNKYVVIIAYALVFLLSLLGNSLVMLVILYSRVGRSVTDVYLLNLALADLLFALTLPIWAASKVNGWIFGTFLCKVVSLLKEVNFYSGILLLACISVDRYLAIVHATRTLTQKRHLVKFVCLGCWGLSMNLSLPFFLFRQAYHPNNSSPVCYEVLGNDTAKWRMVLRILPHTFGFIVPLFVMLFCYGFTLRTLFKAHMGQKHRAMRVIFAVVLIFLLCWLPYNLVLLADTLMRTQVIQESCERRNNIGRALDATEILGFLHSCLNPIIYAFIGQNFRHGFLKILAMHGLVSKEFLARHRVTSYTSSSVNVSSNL

[25] = molecular target: 318 nonolfactory human GPCRs (Homo sapiens, UniProt P46093); settings: GPR4; C21 5 µM
[26] = molecular target: T21, 318 nonolfactory human GPCRs (Homo sapiens, UniProt P25116); settings: F2R; C21 5 µM
T21 construct: expressed in transfected cells; host or cells: HTLA cells, transient
T21 sequence (P25116 22-425): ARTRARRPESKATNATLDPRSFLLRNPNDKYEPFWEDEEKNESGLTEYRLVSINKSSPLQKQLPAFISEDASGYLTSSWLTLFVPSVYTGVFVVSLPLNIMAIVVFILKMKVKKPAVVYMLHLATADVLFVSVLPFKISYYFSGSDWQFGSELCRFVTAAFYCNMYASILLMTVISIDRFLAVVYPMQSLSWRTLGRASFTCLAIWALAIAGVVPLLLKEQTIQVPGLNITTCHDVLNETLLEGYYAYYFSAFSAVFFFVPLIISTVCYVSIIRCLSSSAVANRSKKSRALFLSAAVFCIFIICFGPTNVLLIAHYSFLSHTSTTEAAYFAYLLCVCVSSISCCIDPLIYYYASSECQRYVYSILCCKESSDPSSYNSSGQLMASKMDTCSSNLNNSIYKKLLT

[27] = molecular target: 318 nonolfactory human GPCRs (Homo sapiens, UniProt P28335, I156V/I160V); settings: HTR2C VNV; C21 5 µM
[28] = molecular target: T22, 318 nonolfactory human GPCRs (Homo sapiens, UniProt P32248); settings: CCR7; C21 5 µM
T22 construct: expressed in transfected cells; host or cells: HTLA cells, transient
T22 sequence (P32248 25-378): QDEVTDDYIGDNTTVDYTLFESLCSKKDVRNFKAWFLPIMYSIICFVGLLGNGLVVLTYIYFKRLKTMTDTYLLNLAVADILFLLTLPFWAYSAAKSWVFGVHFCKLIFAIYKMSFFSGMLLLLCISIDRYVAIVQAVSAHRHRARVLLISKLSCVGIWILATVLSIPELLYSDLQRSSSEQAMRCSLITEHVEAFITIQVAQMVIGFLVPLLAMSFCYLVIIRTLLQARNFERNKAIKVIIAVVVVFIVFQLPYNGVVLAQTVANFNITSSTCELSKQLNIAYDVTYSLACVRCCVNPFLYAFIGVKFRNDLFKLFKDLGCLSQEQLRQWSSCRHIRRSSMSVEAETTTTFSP

[29] = molecular target: 318 nonolfactory human GPCRs (Homo sapiens, UniProt Q8IYL9); settings: GPR65; C21 5 µM
[30] = molecular target: T23, 318 nonolfactory human GPCRs (Homo sapiens, UniProt P47871); settings: GCGR; C21 5 µM
T23 construct: expressed in transfected cells; host or cells: HTLA cells, transient

[31] = molecular target: T24, 318 nonolfactory human GPCRs (Homo sapiens, UniProt P49238); settings: CX3CR1; C21 5 µM
T24 construct: expressed in transfected cells; host or cells: HTLA cells, transient

[32] = molecular target: T25, 318 nonolfactory human GPCRs (Homo sapiens, UniProt Q9NPC1); settings: LTB4R2B; C21 5 µM
T25 construct: expressed in transfected cells; host or cells: HTLA cells, transient
T25 sequence (Q9NPC1 whole entry): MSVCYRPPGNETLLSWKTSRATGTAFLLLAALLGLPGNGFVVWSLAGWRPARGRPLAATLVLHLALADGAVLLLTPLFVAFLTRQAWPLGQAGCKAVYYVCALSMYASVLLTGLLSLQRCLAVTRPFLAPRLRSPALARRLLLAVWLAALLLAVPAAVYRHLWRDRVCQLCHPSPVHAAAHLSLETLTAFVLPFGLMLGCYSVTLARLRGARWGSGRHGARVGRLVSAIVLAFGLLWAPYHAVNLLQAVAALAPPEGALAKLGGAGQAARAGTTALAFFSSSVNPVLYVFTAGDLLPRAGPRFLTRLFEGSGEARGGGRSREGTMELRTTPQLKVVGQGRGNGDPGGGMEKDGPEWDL

[33] = molecular target: T26, 318 nonolfactory human GPCRs (Homo sapiens, UniProt Q9H1Y3); settings: OPN3; C21 5 µM
T26 construct: expressed in transfected cells; host or cells: HTLA cells, transient
T26 sequence (Q9H1Y3 whole entry): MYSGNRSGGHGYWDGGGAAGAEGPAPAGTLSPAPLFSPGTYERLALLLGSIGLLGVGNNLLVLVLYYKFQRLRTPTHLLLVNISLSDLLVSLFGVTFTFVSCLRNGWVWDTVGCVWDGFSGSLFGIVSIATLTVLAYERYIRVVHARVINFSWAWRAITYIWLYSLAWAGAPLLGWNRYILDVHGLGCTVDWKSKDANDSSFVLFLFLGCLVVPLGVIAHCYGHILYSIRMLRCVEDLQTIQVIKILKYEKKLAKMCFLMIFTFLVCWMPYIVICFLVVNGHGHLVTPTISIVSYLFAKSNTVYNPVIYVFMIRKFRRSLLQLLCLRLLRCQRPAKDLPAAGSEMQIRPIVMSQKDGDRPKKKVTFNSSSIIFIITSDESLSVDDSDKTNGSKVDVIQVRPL

[34] = molecular target: T27, 318 nonolfactory human GPCRs (Homo sapiens, UniProt P25101); settings: EDNRA; C21 5 µM
T27 construct: expressed in transfected cells; host or cells: HTLA cells, transient

c1ccc2c(c1)N=C(N1CCNCC1)c1ccccc1N2 [C21, 11-(1-piperazinyl)-5H-dibenzo[b,e][1,4]diazepine]
FOLD OVER BASAL [1]: 0.6 fold and 0.5 fold
FOLD OVER BASAL [2]: 1.2 fold and 0.7 fold and 1.1 fold and 0.9 fold
FOLD OVER BASAL [3]: 0.7 fold and 0.8 fold and 1.1 fold and 1.3 fold
FOLD OVER BASAL [4]: 1.2 fold and 0.6 fold
FOLD OVER BASAL [5]: 0.7 fold and 0.8 fold and 0.9 fold
FOLD OVER BASAL [6]: 0.9 fold and 0.6 fold and 0.8 fold
FOLD OVER BASAL [7]: 1 fold and 0.8 fold
FOLD OVER BASAL [8]: 0.8 fold and 1.1 fold and 0.7 fold
FOLD OVER BASAL [9]: 1.6 fold and 1.5 fold and 1.7 fold
FOLD OVER BASAL [10]: 0.8 fold and 0.6 fold and 1 fold
FOLD OVER BASAL [11]: 1.2 fold and 1.1 fold and 1.4 fold
FOLD OVER BASAL [12]: 0.6 fold and 0.7 fold and 0.5 fold and 0.9 fold
FOLD OVER BASAL [13]: 0.9 fold and 1.3 fold and 1 fold
FOLD OVER BASAL [14]: 1.8 fold and 0.9 fold and 1.1 fold and 1.2 fold
FOLD OVER BASAL [15]: 1.3 fold and 1 fold and 0.7 fold and 1.1 fold
FOLD OVER BASAL [16]: 0.4 fold and 0.6 fold
FOLD OVER BASAL [17]: 0.6 fold and 0.8 fold and 1 fold and 0.7 fold
FOLD OVER BASAL [18]: 0.3 fold and 0.2 fold
FOLD OVER BASAL [19]: 1 fold and 0.7 fold
FOLD OVER BASAL [20]: 0.8 fold and 0.5 fold and 1 fold
FOLD OVER BASAL [21]: 0.9 fold and 0.8 fold and 1 fold
FOLD OVER BASAL [22]: 0.9 fold and 0.8 fold and 1 fold
FOLD OVER BASAL [23]: 1.1 fold and 0.9 fold
FOLD OVER BASAL [24]: 0.6 fold and 1 fold and 0.8 fold and 1.1 fold
FOLD OVER BASAL [25]: 0.5 fold and 0.8 fold and 0.6 fold
FOLD OVER BASAL [26]: 0.8 fold and 0.9 fold and 0.6 fold
FOLD OVER BASAL [27]: 0.4 fold and 0.3 fold
FOLD OVER BASAL [28]: 1.6 fold and 0.9 fold and 0.8 fold
FOLD OVER BASAL [29]: 0.8 fold and 0.5 fold
FOLD OVER BASAL [30]: 0.3 fold and 0.2 fold and 0.4 fold
FOLD OVER BASAL [31]: 0.6 fold and 1.1 fold and 0.8 fold
FOLD OVER BASAL [32]: 1 fold and 0.9 fold and 1.1 fold and 1.2 fold
FOLD OVER BASAL [33]: 1.1 fold and 0.7 fold and 0.9 fold and 0.6 fold
FOLD OVER BASAL [34]: 0.8 fold and 1.4 fold and 0.9 fold
